# In article PMC12337087 (Phytotherapy Research, 2025):
# Molecular target: Phosphoglycerate mutase 1 (PGAM1) (Homo sapiens, UniProt P18669)
# Test: SPR
# Type: binding
# Phosphoglycerate mutase 1 (PGAM1), sequence (P18669 2-254): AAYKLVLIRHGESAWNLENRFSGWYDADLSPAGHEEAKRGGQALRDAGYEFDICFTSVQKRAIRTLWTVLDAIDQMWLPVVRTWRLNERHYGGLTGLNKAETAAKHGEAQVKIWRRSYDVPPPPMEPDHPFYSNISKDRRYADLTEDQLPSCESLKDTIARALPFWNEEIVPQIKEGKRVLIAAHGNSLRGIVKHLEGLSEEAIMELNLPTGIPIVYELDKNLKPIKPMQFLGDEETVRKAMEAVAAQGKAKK
smiles,measurement,value
"Cc1cccc2c3c(ccc12)C1=C(C(=O)C3=O)[C@@H](C)CO1 [DHT, Dihydrotanshinone I]",Kd,697 nM
